Experimental data published in PubChem BioAssay (NCI).
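Where inhibition never reached the appropriate level, the endpoint shown equals the highest concentration tested. Otherwise, values were interpolated linearly from a five-concentration, 48-hour dose response in 96-well plates. Abbreviation: GI50, concentration required for 50% inhibition of growth. Definition used: TGI = concentration required for complete inhibition of growth.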

What was measured:
Assay in all cases: inhibition of tumour cell growth, NCI panel, 48 h
[1] = system: 786-0 renal
[2] = system: A498 renal
[3] = system: ACHN renal
[4] = system: HCC-2998 colon
[5] = system: HCT-15 colon
[6] = system: HS 578T breast
[7] = system: IGROV1 ovarian
[8] = system: K-562 leukemia
[9] = system: LOX IMVI melanoma
[10] = system: MALME-3M melanoma
[11] = system: MOLT-4 leukemia
[12] = system: NCI-H226 lung
[13] = system: NCI-H23 lung
[14] = system: NCI/ADR-RES ovarian
[15] = system: OVCAR-5 ovarian
[16] = system: SK-MEL-5 melanoma
[17] = system: SR leukemia
[18] = system: T-47D breast
[19] = system: UACC-62 melanoma
[20] = system: UO-31 renal
[21] = system: A549 NSCLC
[22] = system: CAKI-1 renal
[23] = system: CCRF-CEM leukemia
[24] = system: COLO 205 colon
[25] = system: DU-145 prostate
[26] = system: HL-60(TB) leukemia
[27] = system: HOP-62 NSCLC
[28] = system: HOP-92 NSCLC
[29] = system: HT29 colon
[30] = system: KM12 colon
[31] = system: M14 melanoma
[32] = system: MCF7 breast
[33] = system: MDA-MB-231 breast
[34] = system: MDA-MB-435
[35] = system: NCI-H460 lung
[36] = system: OVCAR-3 ovarian
[37] = system: OVCAR-8 ovarian
[38] = system: PC-3 prostate
[39] = system: RPMI-8226 leukemia
[40] = system: RXF 393 renal
[41] = system: SF-295 CNS
[42] = system: SF-539 CNS
[43] = system: SK-MEL-2 melanoma
[44] = system: SK-MEL-28 melanoma
[45] = system: SK-OV-3 ovarian
[46] = system: SN12C renal
[47] = system: SNB-19 CNS
[48] = system: SNB-75 CNS
[49] = system: TK-10 renal
[50] = system: U251 CNS

**Q.** How did the TGI [1] turn out when `NC(N)=N/N=C\c1c(-c2cccc([N+](=O)[O-])c2)nc2sc(Cl)cn12` was run?
**A.** > 100000 nM

**Q.** What about the TGI [2] of the same molecule?
**A.** 62700 nM

**Q.** And the TGI [3]?
**A.** > 100000 nM

**Q.** And the TGI [4]?
**A.** 4920 nM

**Q.** What about the TGI [5] of the same molecule?
**A.** > 100000 nM

**Q.** What about the TGI [6] of the same molecule?
**A.** > 100000 nM

**Q.** And the TGI [7]?
**A.** 4050 nM

**Q.** And the TGI [8]?
**A.** > 100000 nM

**Q.** And the TGI [9]?
**A.** > 100000 nM

**Q.** What about the TGI [10] of the same molecule?
**A.** 5040 nM

**Q.** What about the TGI [11] of the same molecule?
**A.** 4530 nM

**Q.** What about the TGI [12] of the same molecule?
**A.** > 100000 nM

**Q.** And the TGI [13]?
**A.** 5690 nM

**Q.** And the TGI [14]?
**A.** > 100000 nM

**Q.** And the TGI [15]?
**A.** > 100000 nM

**Q.** And the TGI [16]?
**A.** 78200 nM

**Q.** What about the TGI [17] of the same molecule?
**A.** 3070 nM

**Q.** What about the TGI [18] of the same molecule?
**A.** 4400 nM

**Q.** And the TGI [19]?
**A.** > 100000 nM

**Q.** What about the TGI [20] of the same molecule?
**A.** 3320 nM

**Q.** With `COC(=O)[C@]12CC[C@@H](C(=O)/C=C/c3cccnc3)[C@@H]1[C@H]1CC[C@@H]3[C@@]4(C)C/C(=C/c5cccnc5)C(=O)C(C)(C)[C@@H]4CC[C@@]3(C)[C@]1(C)CC2` as the molecule, how does the GI50 [1] read?
**A.** 374 nM

**Q.** What about the TGI [1] of the same molecule?
**A.** 1330 nM

**Q.** And the GI50 [2]?
**A.** 224 nM

**Q.** And the TGI [2]?
**A.** 947 nM

**Q.** What about the GI50 [21] of the same molecule?
**A.** 401 nM

**Q.** And the TGI [21]?
**A.** 2310 nM

**Q.** And the GI50 [3]?
**A.** 191 nM

**Q.** What about the TGI [3] of the same molecule?
**A.** 348 nM

**Q.** What about the GI50 [22] of the same molecule?
**A.** 716 nM

**Q.** What about the TGI [22] of the same molecule?
**A.** 2000 nM

**Q.** What about the GI50 [23] of the same molecule?
**A.** 334 nM

**Q.** And the TGI [23]?
**A.** 1650 nM

**Q.** What about the GI50 [24] of the same molecule?
**A.** 357 nM

**Q.** And the TGI [24]?
**A.** 1350 nM

**Q.** And the GI50 [25]?
**A.** 773 nM

**Q.** And the TGI [25]?
**A.** 2030 nM

**Q.** And the GI50 [5]?
**A.** 247 nM

**Q.** What about the TGI [5] of the same molecule?
**A.** 666 nM

**Q.** What about the GI50 [26] of the same molecule?
**A.** 292 nM

**Q.** And the TGI [26]?
**A.** 1510 nM

**Q.** What about the GI50 [27] of the same molecule?
**A.** 789 nM

**Q.** And the TGI [27]?
**A.** 2340 nM

**Q.** What about the GI50 [28] of the same molecule?
**A.** 434 nM

**Q.** And the TGI [28]?
**A.** 1730 nM

**Q.** What about the GI50 [6] of the same molecule?
**A.** 395 nM

**Q.** What about the TGI [6] of the same molecule?
**A.** 1930 nM

**Q.** What about the GI50 [29] of the same molecule?
**A.** 319 nM

**Q.** And the TGI [29]?
**A.** 1020 nM

**Q.** What about the GI50 [7] of the same molecule?
**A.** 241 nM

**Q.** What about the TGI [7] of the same molecule?
**A.** 570 nM

**Q.** And the GI50 [8]?
**A.** 309 nM

**Q.** What about the TGI [8] of the same molecule?
**A.** > 100000 nM

**Q.** What about the GI50 [30] of the same molecule?
**A.** 317 nM

**Q.** And the TGI [30]?
**A.** 1050 nM

**Q.** And the GI50 [9]?
**A.** 210 nM

**Q.** What about the TGI [9] of the same molecule?
**A.** 442 nM

**Q.** And the GI50 [31]?
**A.** 310 nM

**Q.** What about the TGI [31] of the same molecule?
**A.** 1010 nM

**Q.** And the GI50 [10]?
**A.** 201 nM

**Q.** And the TGI [10]?
**A.** 416 nM

**Q.** What about the GI50 [32] of the same molecule?
**A.** 387 nM

**Q.** And the TGI [32]?
**A.** 1830 nM

**Q.** What about the GI50 [33] of the same molecule?
**A.** 223 nM

**Q.** And the TGI [33]?
**A.** 508 nM

**Q.** And the GI50 [34]?
**A.** 204 nM

**Q.** And the TGI [34]?
**A.** 420 nM

**Q.** What about the GI50 [11] of the same molecule?
**A.** 359 nM

**Q.** And the TGI [11]?
**A.** 1770 nM

**Q.** And the GI50 [12]?
**A.** 260 nM

**Q.** What about the TGI [12] of the same molecule?
**A.** 597 nM

**Q.** And the GI50 [35]?
**A.** 510 nM

**Q.** What about the TGI [35] of the same molecule?
**A.** 1570 nM

**Q.** And the GI50 [36]?
**A.** 231 nM

**Q.** What about the TGI [36] of the same molecule?
**A.** 514 nM

**Q.** What about the GI50 [15] of the same molecule?
**A.** 369 nM

**Q.** What about the TGI [15] of the same molecule?
**A.** 1340 nM

**Q.** And the GI50 [37]?
**A.** 388 nM

**Q.** And the TGI [37]?
**A.** 1870 nM

**Q.** And the GI50 [38]?
**A.** 412 nM

**Q.** What about the TGI [38] of the same molecule?
**A.** 2090 nM

**Q.** What about the GI50 [39] of the same molecule?
**A.** 258 nM

**Q.** And the TGI [39]?
**A.** 838 nM

**Q.** What about the GI50 [40] of the same molecule?
**A.** 219 nM

**Q.** And the TGI [40]?
**A.** 509 nM

**Q.** What about the GI50 [41] of the same molecule?
**A.** 382 nM

**Q.** And the TGI [41]?
**A.** 1440 nM

**Q.** And the GI50 [42]?
**A.** 207 nM

**Q.** And the TGI [42]?
**A.** 473 nM

**Q.** And the GI50 [43]?
**A.** 296 nM

**Q.** And the TGI [43]?
**A.** 1020 nM

**Q.** And the GI50 [44]?
**A.** 245 nM

**Q.** And the TGI [44]?
**A.** 565 nM

**Q.** What about the GI50 [16] of the same molecule?
**A.** 335 nM

**Q.** And the TGI [16]?
**A.** 983 nM

**Q.** What about the GI50 [45] of the same molecule?
**A.** 2730 nM

**Q.** What about the TGI [45] of the same molecule?
**A.** 6890 nM

**Q.** And the GI50 [46]?
**A.** 429 nM

**Q.** What about the TGI [46] of the same molecule?
**A.** 1670 nM

**Q.** What about the GI50 [47] of the same molecule?
**A.** 665 nM

**Q.** And the TGI [47]?
**A.** 1970 nM

**Q.** And the GI50 [48]?
**A.** 1350 nM

**Q.** What about the TGI [48] of the same molecule?
**A.** 2630 nM

**Q.** What about the GI50 [17] of the same molecule?
**A.** 281 nM

**Q.** What about the TGI [17] of the same molecule?
**A.** 1270 nM

**Q.** And the GI50 [18]?
**A.** 405 nM

**Q.** What about the TGI [18] of the same molecule?
**A.** 2420 nM

**Q.** And the GI50 [49]?
**A.** 701 nM

**Q.** And the TGI [49]?
**A.** 2070 nM

**Q.** And the GI50 [50]?
**A.** 360 nM

**Q.** And the TGI [50]?
**A.** 1340 nM

**Q.** And the GI50 [19]?
**A.** 327 nM

**Q.** What about the TGI [19] of the same molecule?
**A.** 1050 nM

**Q.** And the GI50 [20]?
**A.** 167 nM

**Q.** What about the TGI [20] of the same molecule?
**A.** 331 nM
